The target in one experiment is T1, BRD4(BD1) (Homo sapiens, UniProt O60885).
T1 construct: His; made in house
Nature of the experiment: BRD4 AlphaLisa binding assay. Conditions: BRD4(BD1) 30 nM, biotinylated H4-tetraacetyl peptide 200 nM, read-out: AS IC50. How it is done:
IC50 Measurements for Inhibitors Using BRD4 AlphaLisa Binding Assay
Specifically, in a 384 well ProxiPlate BRD4(BD1) (30 nM final) was combined with peptide (200 nM final) in 40 mM HEPES (pH 7.0), 40 mM NaCl, 1 mM DTT, 0.01% (w/v) BSA, and 0.008% (w/v) Brij-35 either in the presence of DMSO (final 1.2% DMSO) or compound dilution series in DMSO. After 20 minute incubation at room temperature Alpha streptavidin donor beads and AlphaLisa anti-Flag acceptor beads were added to a final concentration of 10 ug/mL each. After three hours equilibration plates were read on an Envision instrument and IC50s calculated using a four parameter non-linear curve fit.
For orientation: In Alpha technology, singlet oxygen from a donor bead excites a nearby acceptor bead.

Experiment [1] has as its system IL-6 secretion, THP-1 cells. As to the kind of experiment: Cell-based IL-6 quantification assay (ELISA, Mesoscale) in LPS-stimulated THP-1 cells. Conditions: Homo sapiens, LPS 4 μg/mL, 16 h, ELISA value/CellTiter-Glo ratio. How it is done:
Cell-Based IL-6 Quantification Assay (ELISA, Mesoscale Assay):
100,000 THP-1 cells were seeded in RPMI1640-10% FBS in 96-well plates. LPS (E. Coli Invitrogen) in RPMI-10% FBS at a final concentration of 4 μg/mL was added to the wells and the cells are then incubated in the presence of various concentrations of compounds for 16 h. Plates are spun ([…], 5 min), an aliquot of 25 uL supernatant is transferred in to an ELISA plate (Mesoscale technology, MSD) and the detection of IL-6 is performed using manufacturer's instructions. The amount of cells in each well is assessed using CellTiter-Glo® (Promega). The ratio of ELISA value/CellTiter-Glo value is used to calculate the percent of inhibition of IL-6 secretion.

For experiment [2], the system named is MYC mRNA, MV4:11 (AML) or Raji (Burkitt's lymphoma) cells. Nature of the experiment: cMyc RNA quantification assay (QuantiGene). Format: cell-based. Conditions: MV4:11 or Raji cells, 4 h, MYC mRNA normalized to DMSO. On the procedure: cMyc RNA Quantification Assay (QuantiGene® Assay):
MV4:11 (AML) or Raji (Burkitt's lymphoma) cells were seeded in a 96-well plate and incubated in the presence of various concentrations of compounds for 4 h. Relative mRNA levels were quantitated by using QuantiGene 2.0 assay (Affymetrix) according to the manufacturer's recommendation. Signals were detected by using an Envision plate reader (Perkin-Elmer). Biological duplicates were averaged and normalized to vehicle (DMSO) control to calculate percent MYC mRNA levels.

pEC50, pIC50: −log10 of the molar value.

As usually defined, the pIC50 is −log10 of the IC50, conventionally taken in molar units. Consider `Cc1noc2c1-c1ccccc1N(c1ccc(C#N)cc1)CC21CC1` [Compound 104], for which the pIC50 on BRD4(BD1) is 6.12.
Turning to `Cc1noc2c1-c1ccccc1N(c1ccc(Cl)cc1)CC2` [Compound 101], the figures for the pIC50 (in experiment [1]; on BRD4(BD1)) were 4.92 and 5.57, respectively.
The pEC50 is the EC50 on a negative log10 scale, so that one unit is a factor of ten. A higher pEC50 goes with a low EC50. With `Cc1noc2c1-c1ccc(-c3ccc(C(=O)O)cc3)cc1N(c1ccc(C#N)cc1)CC2` [Compound 115], the pEC50 in experiment [2] is 5.67. Moreover, the negative logarithm of the IC50 (pIC50) in experiment [1] was 6.28; at BRD4(BD1), 7.52.
As to `Cc1noc2c1-c1ccccc1N(C(C)C)CC2` [Compound 128, 6-isopropyl-1-methyl-5,6-dihydro-4H-benzo[b]isoxazolo[4,5-d]azepine], the figures for the negative logarithm of the IC50 (pIC50) (in experiment [1]; on BRD4(BD1)) were under 4.82 and 5.09, respectively.
Turning to `Cc1cccc2c1N(Cc1ccccc1)CCc1onc(C)c1-2` [Compound 131, 6-benzyl-1,7-dimethyl-5,6-dihydro-4H-benzo[b]isoxazolo[4,5-d]azepine], the pEC50 in experiment [2] was under 5.40. Further, the pIC50 in experiment [1] is 5.07; on BRD4(BD1), 4.68.
`Cc1noc2c1-c1ccccc1NCC2` [Compound 100, 1-methyl-5,6-dihydro-4H-benzo[b]isoxazolo[4,5-d]azepine]: the pIC50 in experiment [1] is under 4.82; at BRD4(BD1), 4.53.
Regarding `Cc1noc2c1-c1ccc(-c3cnn(C)c3)cc1N(c1ccc(C#N)cc1)CC2CC(N)=O` (stereo not drawn) [Compound 137, 2-(6-(4-cyanophenyl)-1-methyl-8-(1-methyl-1H-pyrazol-4-yl)-5,6-dihydro-4H-benzo[b]isoxazolo[4,5-d]azepin-4-yl)acetamide], the pEC50 in experiment [2] is 5.74. In addition, the negative logarithm of the IC50 (pIC50) in experiment [1] was under 6.00; at BRD4(BD1), 6.38.
Taken in the same sequence, the figures for `Cc1noc(C)c1-c1ccc2c(c1)-c1c(C)noc1CCN2c1ccc(C#N)cc1` [Compound 113] were under 5.40, 5.13 and 5.05.
The compound `Cc1noc2c1-c1ccc(-c3cnn(C)c3)cc1N(c1ccc(C#N)cc1)C(=O)C2` [Compound 135, 4-(1-methyl-8-(1-methyl-1H-pyrazol-4-yl)-5-oxo-4H-benzo[b]isoxazolo[4,5-d]azepin-6(5H)-yl)benzonitrile] showed a pEC50 in experiment [2] of 5.88. Moreover, the results for the pIC50 (in experiment [1]; at BRD4(BD1)) were 6.19 and 6.31, respectively.
Taken in the same sequence, the figures for `Cc1noc2c1-c1cc(-c3cnn(C)c3)ccc1N(c1ccc(C#N)cc1)CC2` [Compound 114] were under 5.40, under 4.82 and 5.42.
In turn, `Cc1noc2c1-c1ccc(-c3ccc(=O)n(C)c3)cc1N(c1ccc(C#N)cc1)CC2C` (stereo not drawn) [Compound 125] showed a pEC50 in experiment [2] of 6.77. The pIC50 in experiment [1] was 7.05; at BRD4(BD1), 7.40.
Taken in the same sequence, the figures for `Cc1noc2c1-c1ccc(-c3cnn(CC(N)=O)c3)cc1N(c1ccc(C#N)cc1)CC2C` (stereo not drawn) [Compound 134, 2-(4-(6-(4-cyanophenyl)-1,4-dimethyl-5,6-dihydro-4H-benzo[b]isoxazolo[4,5-d]azepin-8-yl)-1H-pyrazol-1-yl)acetamide] were 6.92, 7.15 and 7.52.
For the compound `Cc1noc2c1-c1ccccc1N(c1ccc(Cl)cc1)CC21CC1` [Compound 105], the pIC50 at BRD4(BD1) is 5.47.
Turning to `Cc1noc2c1-c1cc(C(N)=O)ccc1N(c1ccc(C#N)cc1)CC2` [Compound 126, 6-(4-cyanophenyl)-1-methyl-5,6-dihydro-4H-benzo[b]isoxazolo[4,5-d]azepine-9-carboxamide], the pEC50 in experiment [2] was 5.75. In addition, the pIC50 in experiment [1] is 5.28; on BRD4(BD1) it was 5.85.
For `Cc1noc2c1-c1ccccc1N(Cc1ccccc1)CC2` [Compound 130, 6-benzyl-1-methyl-5,6-dihydro-4H-benzo[b]isoxazolo[4,5-d]azepine], the pEC50 in experiment [2] was under 5.40. The pIC50 is 5.23 in experiment [1] and 4.89 on BRD4(BD1).
Take `Cc1onc2c1-c1ccccc1NCC2` [Compound 143, 1-methyl-5,6-dihydro-4H-benzo[b]isoxazolo[4,3-d]azepine]: on BRD4(BD1), the pIC50 is 4.40.
In turn, `Cc1noc2c1-c1ccc(-c3cnn(C)c3)cc1N(c1ccc(S(C)(=O)=O)cc1)CC2` [Compound 120] had a pEC50 in experiment [2] of 5.84. Also, the pIC50 is under 6.00 in experiment [1] and 6.62 on BRD4(BD1).
As for `Cc1noc2c1-c1ccc(-c3cnn(C)c3)cc1N(c1ccc(C#N)cc1)CC2` [Compound 110], in experiment [2], the pEC50 is 6.11. Further, the pIC50 in experiment [1] was under 6.00; on BRD4(BD1) it was 7.10.
On to `CCC1CN(c2ccc(C#N)cc2)c2cc(-c3ccc(=O)n(C)c3)ccc2-c2c(C)noc21` (stereo not drawn) [Compound 122], for which the pEC50 in experiment [2] was 6.62. Further, the figures for the pIC50 (in experiment [1]; on BRD4(BD1)) were 6.92 and 7.40, respectively.
Regarding `Cc1cc(C#N)ccc1N1CCc2onc(C)c2-c2ccccc21` [Compound 107], the pIC50 was under 4.82 in experiment [1] and under 5.40 at BRD4(BD1).
Taken in the same sequence, the figures for `Cc1noc2c1-c1ccccc1NC(C)C2` (stereo not drawn) [Compound 144, 1,5-dimethyl-5,6-dihydro-4H-benzo[b]isoxazolo[4,5-d]azepine] were under 4.82 and 4.62.
`Cc1noc2c1-c1ccccc1N(C(=O)c1ccccc1)CC2` [Compound 132, (1-methyl-4H-benzo[b]isoxazolo[4,5-d]azepin-6(5H)-yl)(phenyl)methanone]: the pIC50 in experiment [1] is 5.51; at BRD4(BD1), 5.09.
Taken in the same sequence, the figures for `Cc1noc2c1-c1ccccc1N(C)CC2` [Compound 127, 1,6-dimethyl-5,6-dihydro-4H-benzo[b]isoxazolo[4,5-d]azepine] were under 4.82 and 5.01.
In turn, `Cc1noc2c1-c1ccc(-c3cnn(C)c3)cc1N(c1ccc(C#N)cc1)CC2C` (stereo not drawn) [Compound 124] showed a pEC50 in experiment [2] of 6.59. Further, the pIC50 in experiment [1] was 6.92; at BRD4(BD1), 7.40.
Taken in the same sequence, the figures for `Cc1noc2c1-c1ccc(Cl)cc1N(S(=O)(=O)c1ccccc1)CC2` [Compound 133, 8-chloro-1-methyl-6-(phenylsulfonyl)-5,6-dihydro-4H-benzo[b]isoxazolo[4,5-d]azepine] were under 5.40, under 6.00 and under 5.40.
Taken in the same sequence, the figures for `CCC1CN(c2ccc(C#N)cc2)c2cc(-c3cnn(C)c3)ccc2-c2c(C)noc21` (stereo not drawn) [Compound 121] were 6.34, 6.82 and 7.10.
For the compound `Cc1noc2c1-c1ccccc1N(c1ccc(C#N)cc1)C(C)C2` (stereo not drawn) [Compound 141, 4-(1,5-dimethyl-4H-benzo[b]isoxazolo[4,5-d]azepin-6(5H)-yl)benzonitrile], the pIC50 in experiment [1] was 5.36; at BRD4(BD1), 6.25.
Taken in the same sequence, the figures for `Cc1noc2c1-c1ccc(-c3cnn(C)c3)cc1N(c1ccc(C#N)cc1)CC2CC#N` (stereo not drawn) [Compound 140, 4-(4-(cyanomethyl)-1-methyl-8-(1-methyl-1H-pyrazol-4-yl)-4H-benzo[b]isoxazolo[4,5-d]azepin-6(5H)-yl)benzonitrile] were under 6.00 and 6.30.
Take `Cc1noc2c1-c1ccc(-c3cnn(C)c3)c(C)c1N(c1ccc(C#N)cc1)CC2C` (stereo not drawn) [Compound 118]: the pEC50 in experiment [2] is 6.08. The pIC50 in experiment [1] is 6.28; on BRD4(BD1), 6.80.
Turning to `Cc1noc2c1-c1ccc(-c3cnn(C)c3)cc1N(c1ccc(C(N)=O)cc1)CC2` [Compound 119], the pEC50 in experiment [2] is 6.34. In addition, the pIC50 was 6.21 in experiment [1] and 6.82 on BRD4(BD1).
Taken in the same sequence, the figures for `Cc1ccc2c(c1)-c1c(C)noc1CCN2c1ccc(C#N)cc1` [Compound 106] were 5.70, under 6.00 and 6.64.
Turning to `Cc1noc2c1-c1cc(-c3cncnc3)ccc1N(c1ccc(C#N)cc1)CC2` [Compound 112], the pIC50 was under 4.82 in experiment [1] and 4.30 at BRD4(BD1).
In the case of `Cc1noc2c1-c1ccccc1N(c1ccc(C#N)cc1)CC2` [Compound 102], the figures for the pIC50 (in experiment [1]; at BRD4(BD1)) were 5.34 and 6.37, respectively.
Taken in the same sequence, the figures for `CCCN1CCc2onc(C)c2-c2ccccc21` [Compound 129, 1-methyl-6-propyl-5,6-dihydro-4H-benzo[b]isoxazolo[4,5-d]azepine] were under 4.82 and 5.10.
Taken in the same sequence, the figures for `Cc1noc2c1-c1ccccc1NC(=O)C2N` (stereo not drawn) [Compound 142, 4-amino-1-methyl-4H-benzo[b]isoxazolo[4,5-d]azepin-5(6H)-one] were under 6.00 and under 4.10.
Regarding `Cc1noc2c1-c1cc(C#N)ccc1N(c1ccc(C#N)cc1)CC2` [Compound 108], the pIC50 on BRD4(BD1) was 6.24.

Values taken from US9624244B2, “Benzo [B] isoxazoloazepine bromodomain inhibitors and uses thereof” (Constellation Pharmaceuticals, Inc., priority 2012, dated 2017).
